Test results taken from patent publication US12043632B2, “6-heteroaryloxy benzimidazoles and azabenzimidazoles as JAK2 inhibitors” (Ajax Therapeutics, Inc., priority 2020, dated 2024).

The compounds below were run against T1, JAK2 (JH1domain-catalytic, Y1007F,Y1008F) kinase (Homo sapiens, UniProt O60674, Y1007F/Y1008F) (assay: JAK2 JH1 Domain Binding Assay). Conditions: qPCR readout.
T1 construct: JAK2 (JH1domain-catalytic, Y1007F,Y1008F) kinase was expressed as N-terminal fusion; made in house; host or cells: transiently transfected HEK293 cells
T1 sequence (O60674 849-1124 Y1007F/Y1008F limits assumed): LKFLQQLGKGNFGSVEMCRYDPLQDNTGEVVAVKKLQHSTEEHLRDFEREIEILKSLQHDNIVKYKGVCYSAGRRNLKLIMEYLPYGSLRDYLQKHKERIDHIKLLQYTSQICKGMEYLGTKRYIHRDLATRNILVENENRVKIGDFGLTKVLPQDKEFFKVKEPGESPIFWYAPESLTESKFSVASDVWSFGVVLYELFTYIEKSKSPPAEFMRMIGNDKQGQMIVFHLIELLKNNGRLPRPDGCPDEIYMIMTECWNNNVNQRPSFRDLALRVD
With `Cn1c(Nc2cc(C3CC3)cn(CCO)c2=O)nc2ncc(Oc3cnn4ccncc34)c(Cl)c21` [Example I-65, 3-((7-chloro-1-methyl-6-(pyrazolo[1,5-a]pyrazin-3-yloxy)-1H-imidazo[4,5-b]pyridin-2-yl)amino)-5-cyclopropyl-1-(2-hydroxyethyl)pyridin-2(1H)-one] the Kd was less than 10 nM.
`Cn1c(Nc2cc(C(C)(C)C)n([C@H]3CCO[C@@H]3CO)n2)nc2ncc(Oc3cnn4ccncc34)c(Cl)c21` [Example I-66, ((2S,3S)-3-(5-(tert-butyl)-3-((7-chloro-1-methyl-6-(pyrazolo[1,5-a]pyrazin-3-yloxy)-1H-imidazo[4,5-b]pyridin-2-yl)amino)-1H-pyrazol-1-yl)tetrahydrofuran-2-yl)methanol] showed a Kd of less than 10 nM.
`COc1c(Oc2cnn3ccncc23)cnc2nc(Nc3cc(C4CC4)cn(C4CCOCC4)c3=O)n(C)c12` [Example I-67, 5-cyclopropyl-3-((7-methoxy-1-methyl-6-(pyrazolo[1,5-a]pyrazin-3-yloxy)-1H-imidazo[4,5-b]pyridin-2-yl)amino)-1-(tetrahydro-2H-pyran-4-yl)pyridin-2(1H)-one] showed a Kd of less than 10 nM.
`Cn1c(Nc2cc(C3CC3)cn(C3CCOCC3)c2=O)nc2ncc(Oc3cnn4ccncc34)c(Cl)c21` [Example I-68, 3-((7-chloro-1-methyl-6-(pyrazolo[1,5-a]pyrazin-3-yloxy)-1H-imidazo[4,5-b]pyridin-2-yl)amino)-5-cyclopropyl-1-(tetrahydro-2H-pyran-4-yl)pyridin-2(1H)-one] gave a Kd of less than 10 nM.
With `Cn1c(Nc2cc(C3CC3)cn([C@H]3C[C@@H](O)C3)c2=O)nc2ncc(Oc3cnn4ccncc34)c(Cl)c21` [Example I-70, 3-((7-chloro-1-methyl-6-(pyrazolo[1,5-a]pyrazin-3-yloxy)-1H-imidazo[4,5-b]pyridin-2-yl)amino)-5-cyclopropyl-1-((1s,3s)-3-hydroxycyclobutyl)pyridin-2(1H)-one] the Kd was less than 10 nM.
`COc1c(Oc2cnn3ccncc23)cnc2nc(Nc3cc(C4CC4)cn([C@H]4C[C@@H](O)C4)c3=O)n(C)c12` [Example I-74, cis-5-cyclopropyl-1-(3-hydroxycyclobutyl)-3-((7-methoxy-1-methyl-6-(pyrazolo[1,5-a]pyrazin-3-yloxy)-1H-imidazo[4,5-b]pyridin-2-yl)amino)pyridin-2(1H)-one] was tested, and the Kd was less than 10 nM.
`COc1c(Oc2cnn3ccncc23)cnc2nc(Nc3cc(C4CC4)cn([C@H]4C[C@H](O)C4)c3=O)n(C)c12` [Example I-75, trans-5-cyclopropyl-1-(3-hydroxycyclobutyl)-3-((7-methoxy-1-methyl-6-(pyrazolo[1,5-a]pyrazin-3-yloxy)-1H-imidazo[4,5-b]pyridin-2-yl)amino)pyridin-2(1H)-one] gave a Kd of less than 10 nM.
Compound `Cn1c(Nc2cc(C3CC3)cn([C@H]3C[C@H](C#N)C3)c2=O)nc2ncc(Oc3cnn4ccncc34)c(Cl)c21` [Example I-77, trans-3-(3-((7-chloro-1-methyl-6-(pyrazolo[1,5-a]pyrazin-3-yloxy)-1H-imidazo[4,5-b]pyridin-2-yl)amino)-5-cyclopropyl-2-oxopyridin-1(2H)-yl)cyclobutane-1-carbonitrile] has a Kd of less than 10 nM.
With `Cn1c(Nc2cc(C3CC3)cn(CCO)c2=O)nc2ncc(Oc3cnn4ccccc34)c(Cl)c21` [Example I-78, 3-((7-chloro-1-methyl-6-(pyrazolo[1,5-a]pyridin-3-yloxy)-1H-imidazo[4,5-b]pyridin-2-yl)amino)-5-cyclopropyl-1-(2-hydroxyethyl)pyridin-2(1H)-one] the Kd was less than 10 nM.
`Cn1c(Nc2cc(C3CC3)cn([C@H]3C[C@H](O)C3)c2=O)nc2ncc(Oc3cnn4ccccc34)c(Cl)c21` [Example I-79, trans-3-((7-chloro-1-methyl-6-(pyrazolo[1,5-a]pyridin-3-yloxy)-1H-imidazo[4,5-b]pyridin-2-yl)amino)-5-cyclopropyl-1-(3-hydroxycyclobutyl)pyridin-2(1H)-one] gave a Kd of less than 10 nM.
With `Cn1c(Nc2cc(C3CC3)cn([C@H]3C[C@@H](C#N)C3)c2=O)nc2ncc(Oc3cnn4ccncc34)c(Cl)c21` [Example I-80, cis-3-(3-((7-chloro-1-methyl-6-(pyrazolo[1,5-a]pyrazin-3-yloxy)-1H-imidazo[4,5-b]pyridin-2-yl)amino)-5-cyclopropyl-2-oxopyridin-1(2H)-yl)cyclobutane-1-carbonitrile] the Kd was less than 10 nM.
For `Cn1c(Nc2cc(C(C)(C)C)n([C@H]3CCO[C@@H]3CO)n2)nc2ncc(Oc3cnc4ccnn4c3)c(Cl)c21` [Example I-82, ((2S,3S)-3-(5-(tert-butyl)-3-((7-chloro-1-methyl-6-(pyrazolo[1,5-a]pyrimidin-6-yloxy)-1H-imidazo[4,5-b]pyridin-2-yl)amino)-1H-pyrazol-1-yl)tetrahydrofuran-2-yl)methanol], the Kd was 10 to 50 nM.
For `Cn1c(Nc2cc(C(C)(C)C)n([C@H]3CCO[C@@H]3CO)n2)nc2ncc(Oc3cnn4ccnc4c3)c(Cl)c21` [Example I-83, ((2S,3S)-3-(5-(tert-butyl)-3-((7-chloro-6-(imidazo[1,2-b]pyridazin-7-yloxy)-1-methyl-1H-imidazo[4,5-b]pyridin-2-yl)amino)-1H-pyrazol-1-yl)tetrahydrofuran-2-yl)methanol], the Kd was 10 to 50 nM.
Compound `Cn1cc(C2CC2)cc(Nc2nc3ncc(Oc4cnc5cnc(C6CC6)n5c4)c(Cl)c3n2C)c1=O` [Example I-84, 3-((7-chloro-6-((6-cyclopropylimidazo[1,5-a]pyrimidin-3-yl)oxy)-1-methyl-1H-imidazo[4,5-b]pyridin-2-yl)amino)-5-cyclopropyl-1-methylpyridin-2(1H)-one] has a Kd of less than 10 nM.
In the case of `Cn1c(Nc2cc(C3CC3)cn(C3CC4(COC4)C3)c2=O)nc2ncc(Oc3cnn4ccncc34)c(Cl)c21` [Example I-85, 3-((7-chloro-1-methyl-6-(pyrazolo[1,5-a]pyrazin-3-yloxy)-1H-imidazo[4,5-b]pyridin-2-yl)amino)-5-cyclopropyl-1-(2-oxaspiro[3.3]heptan-6-yl)pyridin-2(1H)-one], the Kd is reported as less than 10 nM.
For `Cn1c(Nc2cc(C(C)(C)C)n(C3COC3)n2)nc2ncc(Oc3cnn4ccncc34)c(Cl)c21` [Example I-86, N-(5-(tert-butyl)-1-(oxetan-3-yl)-1H-pyrazol-3-yl)-7-chloro-1-methyl-6-(pyrazolo[1,5-a]pyrazin-3-yloxy)-1H-imidazo[4,5-b]pyridin-2-amine], the Kd was less than 10 nM.
For `Cn1c(Nc2cc(C(C)(C)C)n([C@H]3CCO[C@@H]3CO)n2)nc2ncc(Oc3cnc4cnc(C5CC5)n4c3)c(Cl)c21` [Example I-87, ((2S,3S)-3-(5-(tert-butyl)-3-((7-chloro-6-((6-cyclopropylimidazo[1,5-a]pyrimidin-3-yl)oxy)-1-methyl-1H-imidazo[4,5-b]pyridin-2-yl)amino)-1H-pyrazol-1-yl)tetrahydrofuran-2-yl)methanol], the Kd was 10 to 50 nM.
Work on `Cn1c(Nc2cc(C(C)(C)C)n([C@H]3C[C@H](O)C3)n2)nc2ncc(Oc3cnc4cnc(C5CC5)n4c3)c(Cl)c21` [Example I-88, trans-3-(5-(tert-butyl)-3-((7-chloro-6-((6-cyclopropylimidazo[1,5-a]pyrimidin-3-yl)oxy)-1-methyl-1H-imidazo[4,5-b]pyridin-2-yl)amino)-1H-pyrazol-1-yl)cyclobutan-1-ol] yielded a Kd of 10 to 50 nM.
Work on `Cn1c(Nc2cc(C(F)(F)F)cn(C3CC4(COC4)C3)c2=O)nc2ncc(Oc3cnn4ccncc34)c(Cl)c21` [Example I-90, 3-((7-chloro-1-methyl-6-(pyrazolo[1,5-a]pyrazin-3-yloxy)-1H-imidazo[4,5-b]pyridin-2-yl)amino)-1-(2-oxaspiro[3.3]heptan-6-yl)-5-(trifluoromethyl)pyridin-2(1H)-one] yielded a Kd of less than 10 nM.
Compound `Cn1c(Nc2cc(C(F)(F)F)cn(CCCN3CCOCC3)c2=O)nc2ncc(Oc3cnn4ccncc34)c(Cl)c21` [Example I-91, 3-((7-chloro-1-methyl-6-(pyrazolo[1,5-a]pyrazin-3-yloxy)-1H-imidazo[4,5-b]pyridin-2-yl)amino)-1-(3-morpholinopropyl)-5-(trifluoromethyl)pyridin-2(1H)-one] has a Kd of less than 10 nM.
`Cn1cc(C2CC2)cc(Nc2nc3ncc(Oc4cnc5[nH]ncc5c4)c(Cl)c3n2C)c1=O` [Example I-92, 3-((6-((1H-pyrazolo[3,4-b]pyridin-5-yl)oxy)-7-chloro-1-methyl-1H-imidazo[4,5-b]pyridin-2-yl)amino)-5-cyclopropyl-1-methylpyridin-2(1H)-one] was tested, and the Kd was less than 10 nM.
In the case of `CC(=O)N1CC(n2nc(Nc3nc4ncc(Oc5cnn6ccncc56)c(Cl)c4n3C)cc2C(C)(C)C)C1` [Example I-94, 1-(3-(5-(tert-butyl)-3-((7-chloro-1-methyl-6-(pyrazolo[1,5-a]pyrazin-3-yloxy)-1H-imidazo[4,5-b]pyridin-2-yl)amino)-1H-pyrazol-1-yl)azetidin-1-yl)ethan-1-one], the Kd is reported as less than 10 nM.
In the case of `COc1c(Oc2cnn3ccncc23)cnc2nc(Nc3cc(C4CC4)cn([C@H]4C[C@H](C#N)C4)c3=O)n(C)c12` [Example I-96, trans-3-(5-cyclopropyl-3-((7-methoxy-1-methyl-6-(pyrazolo[1,5-a]pyrazin-3-yloxy)-1H-imidazo[4,5-b]pyridin-2-yl)amino)-2-oxopyridin-1(2H)-yl)cyclobutane-1-carbonitrile], the Kd is reported as 10 to 50 nM.
`Cn1c(Nc2cc(C3CC3)cn(CCCN3CCOCC3)c2=O)nc2ncc(Oc3cnn4ccncc34)c(Cl)c21` [Example I-97, 3-((7-chloro-1-methyl-6-(pyrazolo[1,5-a]pyrazin-3-yloxy)-1H-imidazo[4,5-b]pyridin-2-yl)amino)-5-cyclopropyl-1-(3-morpholinopropyl)pyridin-2(1H)-one] was tested, and the Kd was less than 10 nM.
Compound `COc1c(Oc2cnn3ccccc23)cnc2nc(Nc3cc(C4CC4)cn(CCO)c3=O)n(C)c12` [Example I-100, 5-cyclopropyl-1-(2-hydroxyethyl)-3-((7-methoxy-1-methyl-6-(pyrazolo[1,5-a]pyridin-3-yloxy)-1H-imidazo[4,5-b]pyridin-2-yl)amino)pyridin-2(1H)-one] has a Kd of 10 to 50 nM.
Compound `CN1CCN(CCn2cc(C3CC3)cc(Nc3nc4ncc(Oc5cnn6ccccc56)c(Cl)c4n3C)c2=O)CC1` [Example I-102, 3-((7-chloro-1-methyl-6-(pyrazolo[1,5-a]pyridin-3-yloxy)-1H-imidazo[4,5-b]pyridin-2-yl)amino)-5-cyclopropyl-1-(2-(4-methylpiperazin-1-yl)ethyl)pyridin-2(1H)-one] has a Kd of less than 10 nM.
